# Tests used:
# Assay type in all cases: in vivo
# [1] = tested on: Alopecurus myosuroides; experiment: Post-emergence herbicidal activity against ALOMY; conditions: dosage 320 g/ha, rated about 3 weeks after treatment
# Procedure: (§1) ABUTH: Abutilon theophrasti ALOMY: Alopecurus myosuroides 2. Post-Emergence Herbicidal Action and Crop Plant Compatibility Seeds of monocotyledonous and dicotyledonous weeds and crop plants are placed in sandy loam in plastic or wood-fiber pots, covered with soil and cultivated in a greenhouse under controlled growth conditions. 2 to 3 weeks after sowing, the test plants are treated at the one-leaf stage. The compounds of the invention, formulated in the form of wettable powders (WP) or as emulsion concentrates (EC), are then sprayed onto the green parts of the plants as aqueous suspension or emulsion with addition of 0.5% additive at a water application rate of 600 l/ha (converted). After the test plants had been kept in the greenhouse under optimum growth conditions for about 3 weeks, the activity of the preparations is rated visually in comparison to untreated controls. For example, 100% activity=the plants have died, 0% activity=like control plants.
# [2] = tested on: Avena fatua; experiment: Post-emergence herbicidal activity against AVEFA; conditions: dosage 320 g/ha, rated about 3 weeks after treatment
# Procedure: as §1, with “AMARE: Amaranthus retroflexus AVEFA: Avena fatua” for “ABUTH: Abutilon theophrasti ALOMY: Alopecurus myosuroides”
# [3] = tested on: Echinochloa crus-galli; experiment: Post-emergence herbicidal activity against ECHCG; conditions: dosage 320 g/ha, rated about 3 weeks after treatment
# Procedure: as §1, with “ECHCG: Echinochloa crus-galli HORMU: Hordeum murinum” for “ABUTH: Abutilon theophrasti ALOMY: Alopecurus myosuroides”
# [4] = tested on: Lolium rigidum; experiment: Post-emergence herbicidal activity against LOLRI; conditions: dosage 320 g/ha, rated about 3 weeks after treatment
# Procedure: as §1, with “LOLRI: Lolium rigidum PHBPU: Pharbitis purpurea” for “ABUTH: Abutilon theophrasti ALOMY: Alopecurus myosuroides”
# [5] = tested on: Setaria viridis; experiment: Post-emergence herbicidal activity against SETVI; conditions: dosage 320 g/ha, rated about 3 weeks after treatment
# Procedure: as §1, with “POLCO: Polygonum convolvulus SETVI: Setaria viridis” for “ABUTH: Abutilon theophrasti ALOMY: Alopecurus myosuroides”
# [6] = tested on: Abutilon theophrasti; experiment: Post-emergence herbicidal activity against ABUTH; conditions: dosage 320 g/ha, rated about 3 weeks after treatment
# Procedure: as §1
# [7] = tested on: Amaranthus retroflexus; experiment: Post-emergence herbicidal activity against AMARE; conditions: dosage 320 g/ha, rated about 3 weeks after treatment
# Procedure: as §1, with “AMARE: Amaranthus retroflexus AVEFA: Avena fatua” for “ABUTH: Abutilon theophrasti ALOMY: Alopecurus myosuroides”
# [8] = tested on: Pharbitis purpurea; experiment: Post-emergence herbicidal activity against PHBPU; conditions: dosage 320 g/ha, rated about 3 weeks after treatment
# Procedure: as §1, with “LOLRI: Lolium rigidum PHBPU: Pharbitis purpurea” for “ABUTH: Abutilon theophrasti ALOMY: Alopecurus myosuroides”
# [9] = tested on: Polygonum convolvulus; experiment: Post-emergence herbicidal activity against POLCO; conditions: dosage 320 g/ha, rated about 3 weeks after treatment
# Procedure: as §1, with “POLCO: Polygonum convolvulus SETVI: Setaria viridis” for “ABUTH: Abutilon theophrasti ALOMY: Alopecurus myosuroides”
# [10] = tested on: Stellaria media; experiment: Post-emergence herbicidal activity against STEME; conditions: dosage 320 g/ha, rated about 3 weeks after treatment
# Procedure: as §1, with “STEME: Stellaria media VERPE: Veronica persica” for “ABUTH: Abutilon theophrasti ALOMY: Alopecurus myosuroides”
# [11] = tested on: Viola tricolor; experiment: Post-emergence herbicidal activity against VIOTR; conditions: dosage 320 g/ha, rated about 3 weeks after treatment
# Procedure: as §1, with “VIOTR: Viola tricolor” for “ABUTH: Abutilon theophrasti ALOMY: Alopecurus myosuroides”
# [12] = tested on: Veronica persica; experiment: Post-emergence herbicidal activity against VERPE; conditions: dosage 320 g/ha
# Procedure: as §1, with “STEME: Stellaria media VERPE: Veronica persica” for “ABUTH: Abutilon theophrasti ALOMY: Alopecurus myosuroides”
# [13] = tested on: Hordeum murinum; experiment: Post-emergence herbicidal activity against HORMU; conditions: dosage 320 g/ha
# Procedure: as §1, with “ECHCG: Echinochloa crus-galli HORMU: Hordeum murinum” for “ABUTH: Abutilon theophrasti ALOMY: Alopecurus myosuroides”
# [14] = tested on: Amaranthus retroflexus; experiment: Pre-emergence herbicidal activity against AMARE; conditions: Amaranthus retroflexus, 504 h, dosage 80 g/ha
# From the text: (§2) 1. Pre-Emergence Herbicidal Action and Crop Plant Compatibility Seeds of monocotyledonous and dicotyledonous weed plants and crop plants are placed in plastic or wood fiber pots and covered with soil. The compounds of the invention, formulated in the form of wettable powders (WP) or as emulsion concentrates (EC), are then applied onto the surface of the covering soil as aqueous suspension or emulsion with addition of 0.5% additive at a water application rate of 600 l/ha (converted). After the treatment, the pots are placed in a greenhouse and kept under good growth conditions for the trial plants. After about 3 weeks, the effect of the preparations is scored visually in comparison with untreated controls as percentages. For example, 100% activity=the plants have died, 0% activity=like control plants. AMARE: Amaranthus retroflexus AVEFA: Avena fatua
# [15] = tested on: Veronica persica; experiment: Pre-emergence herbicidal activity against VERPE; conditions: Veronica persica, 504 h, dosage 80 g/ha
# From the text: as §2, with “STEME: Stellaria media VERPE: Veronica persica” for “AMARE: Amaranthus retroflexus AVEFA: Avena fatua”
# [16] = Post-emergence treatment, summary over harmful plants; conditions: 504 h, application rate of 0.32 kg of active substance or less per hectare, read-out: herbicidal action, post-emergence treatment (very good herbicidal activity)
# Procedure: 2. Post-Emergence Herbicidal Action and Crop Plant Compatibility
# as §1, with “Seeds” for “ABUTH: Abutilon theophrasti ALOMY: Alopecurus myosuroides 2. Post-Emergence Herbicidal Action and Crop Plant Compatibility Seeds”
# As shown by the results, compounds according to the invention such as, for example, the compounds No. I-35 and other compounds from the tables (for example I-28, I-38, I-01, I-19, I-36, I-29, I-32, I-11, I-12, I-37, I-06, I-09, I-33, I-34, I-13, I-04, I-26, I-21, I-30, I-05, I-03, I-20, I-27, I-14, I-10, I-23, I-07, I-25, I-02, I-08, I-24, I-41, I-42, I-43, I-44, I-46, I-49, I-54, I-55, I-56) have, when used for post-emergence treatment, very good herbicidal activity (80% to 100% herbicidal action) against harmful plants such as Abutilon theophrasti, Alopecurus myosuroides, Amaranthus retroflexus, Avena fatua, Echinochloa crus-galli, Hordeum murinum, Lolium rigidum, Pharbitis purpurea, Polygonum convolvulus, Setaria viridis, Stellaria media, Veronica persica and Viola tricolor at an application rate of 0.32 kg of active substance or less per hectare.
SMILES,Post-emergence herbicidal activity against ALOMY in % [1],Post-emergence herbicidal activity against AVEFA in % [2],Post-emergence herbicidal activity against ECHCG in % [3],Post-emergence herbicidal activity against LOLRI in % [4],Post-emergence herbicidal activity against SETVI in % [5],Post-emergence herbicidal activity against ABUTH in % [6],Post-emergence herbicidal activity against AMARE in % [7],Post-emergence herbicidal activity against PHBPU in % [8],Post-emergence herbicidal activity against POLCO in % [9],Post-emergence herbicidal activity against STEME in % [10],Post-emergence herbicidal activity against VIOTR in % [11],Post-emergence herbicidal activity against VERPE in % [12],Post-emergence herbicidal activity against HORMU in % [13],also measured
C=CC1(C(=O)NC2COC(C(=O)OCc3ccc(OC)cc3)C2)CC(c2cc(F)cc(F)c2)=NO1 (mixture of isomers) [I-54],90%,90%,90%,90%,90%,90%,80%,90%,90%,90%,90%,90%,90%,
"CCOC(=O)C1=C(NC(=O)C2(C)CC(c3cc(F)cc(F)c3)=NO2)COC1 (stereo not drawn) [I-24, ethyl 4-[[3-(3,5-difluorophenyl)-5-methyl-4H-isoxazole-5-carbonyl]amino]-2,5-dihydrofuran-3-carboxylate]",,,,,,,,,,,,,,"pest or weed control at 80 g/ha [14]: 80%; pest or weed control at 80 g/ha [15]: 100%; pest or weed control at 320 g/ha ([1]; Alopecurus myosuroides, 504 h): 90%; pest or weed control at 320 g/ha ([2]; Avena fatua, 504 h): 90%; pest or weed control at 320 g/ha ([4]; Lolium rigidum, 504 h): 90%; pest or weed control at 320 g/ha ([8]; Ipomoea purpurea, 504 h): 80%; pest or weed control at 320 g/ha ([9]; Fallopia convolvulus, 504 h): 90%; pest or weed control at 320 g/ha ([13]; Hordeum murinum, 504 h): 90%; pest or weed control at 320 g/ha [16]: 80 to 100%"
CC(F)(F)C1(C(=O)NC2COC(C(=O)O)C2)CC(c2cc(F)cc(F)c2)=NO1 (stereo not drawn) [I-50],90%,100%,90%,90%,90%,90%,80%,90%,90%,90%,90%,90%,100%,
CC(C)OC(=O)C1CC(NC(=O)C2(C(C)(F)F)CC(c3cc(F)cc(F)c3)=NO2)CO1 (stereo not drawn) [I-51],100%,100%,90%,90%,90%,80%,80%,90%,90%,90%,90%,90%,90%,
